Converted amounts (≈) assume the structure as drawn. Square brackets hold non-standard residues; d marks the D form. Peptide text beside a SMILES is read from it. Dab = NCC[C@H](N)C(=O)O
Assays:
Conditions in all cases: Mueller-Hinton medium, 37°C, 24 h, inoculum 5 × 10^5 CFU/mL; MIC based on three sets of determinations
[1] = tested on: Acinetobacter baumannii MB9953
Procedure: (§1) The A. baumannii strains used in this study consisted of seven strains resistant to Polymyxin B and Colistin (antibiotics of last resort) obtained from MERCK (M89941, M89949, M89951, M89952, M89953, M89955 and M89963). The MICGM in this case is the geometric mean MIC from the seven Acinetobacter baumannii strains used in this study.
(§2) The minimal inhibitory concentration (MIC) is defined as the lowest peptide concentration that inhibited bacterial growth. MICs were measured by a standard microtiter dilution method in Mueller Hinton (MH) medium. Briefly, cells were grown overnight at 37°C in MH broth and were diluted in the same medium. […] The plates were incubated at 37°C for 24h, and the MICs were determined. The MICGM is the geometric mean of the number of MIC values.

[2] = tested on: Acinetobacter baumannii MB9955
Procedure: as §1, §2

[3] = tested on: Acinetobacter baumannii MB9963
Procedure: as §1, §2

[4] = tested on: Acinetobacter baumannii MB9951
Procedure: as §1, §2

[5] = tested on: Acinetobacter baumannii MB9949
Procedure: as §1, §2

[6] = tested on: Acinetobacter baumannii MB9952
Procedure: as §1, §2

[7] = tested on: Acinetobacter baumannii MB9941
Procedure: as §1, §2

Row | Compound | MIC MB9953 [1] [µM] | MIC MB9955 [2] [µM] | MIC MB9963 [3] [µM] | MIC MB9951 [4] [µM] | MIC MB9949 [5] [µM] | MIC MB9952 [6] [µM] | MIC MB9941 [7] [µM]
1 | CC(=O)N[C@H](CCCCN)C(=O)N[C@H](CC(C)C)C(=O)N[C@H](CCCCN)C(=O)N[C@H](CO)C(=O)N[C@H](CC(C)C)C(=O)N[C@H](CC(C)C)C(=O)N[C@H](CCCCN)C(=O)N[C@@H](C(=O)N[C@H](CC(C)C)C(=O)N[C@H](CO)C(=O)N[C@H](CCCCN)C(=O)N[C@H](C)C(=O)N[C@H](CCCCN)C(=O)N[C@H](C)C(=O)N[C@H](C)C(=O)N[C@H](CCCCN)C(=O)N[C@H](CC(C)C)C(=O)N[C@H](CCCCN)C(=O)N[C@@H](C(=O)N[C@H](CC(C)C)C(=O)N[C@H](CC(C)C)C(=O)N[C@H](CCCCN)C(=O)N[C@H](C)C(=O)N[C@H](CC(C)C)C(=O)N[C@H](CO)C(=O)N[C@H](CCCCN)C(N)=O)[C@H](C)O)[C@H](C)O [D84(Lys^1-6 Lys-1)] (Ac-[dK][dL][dK][dS][dL][dL][dK][dT][dL][dS][dK][dA][dK][dA][dA][dK][dL][dK][dT][dL][dL][dK][dA][dL][dS][dK]-NH2) | 0.7 (≈ 2.01 µg/mL) | 0.3 (≈ 0.86 µg/mL) | 0.7 (≈ 2.01 µg/mL) | 0.3 (≈ 0.86 µg/mL) | 0.7 (≈ 2.01 µg/mL) | 0.7 (≈ 2.01 µg/mL) | 0.3 (≈ 0.86 µg/mL)
2 | CC(=O)N[C@H](CCCCN)C(=O)N[C@H](CC(C)C)C(=O)N[C@@H](CCN)C(=O)N[C@H](CO)C(=O)N[C@H](CC(C)C)C(=O)N[C@H](CC(C)C)C(=O)N[C@@H](CCN)C(=O)N[C@@H](C(=O)N[C@H](CC(C)C)C(=O)N[C@H](CO)C(=O)N[C@@H](CCN)C(=O)N[C@H](C)C(=O)N[C@H](CCCCN)C(=O)N[C@H](C)C(=O)N[C@H](C)C(=O)N[C@H](CCCCN)C(=O)N[C@H](CC(C)C)C(=O)N[C@@H](CCN)C(=O)N[C@@H](C(=O)N[C@H](CC(C)C)C(=O)N[C@H](CC(C)C)C(=O)N[C@@H](CCN)C(=O)N[C@H](C)C(=O)N[C@H](CC(C)C)C(=O)N[C@H](CO)C(=O)N[C@@H](CCN)C(N)=O)[C@H](C)O)[C@H](C)O [D86(Lys^1-6 Dab-1)] (Ac-[dK][dL][Dab][dS][dL][dL][Dab][dT][dL][dS][Dab][dA][dK][dA][dA][dK][dL][Dab][dT][dL][dL][Dab][dA][dL][dS][Dab]-NH2) | 0.8 (≈ 2.16 µg/mL) | 0.8 (≈ 2.16 µg/mL) | 0.8 (≈ 2.16 µg/mL) | 0.8 (≈ 2.16 µg/mL) | 0.8 (≈ 2.16 µg/mL) | 0.8 (≈ 2.16 µg/mL) | 1.5 (≈ 4.05 µg/mL)
3 | CC(=O)N[C@H](CCCCN)C(=O)N[C@H](CC(C)C)C(=O)N[C@H](CCCCN)C(=O)N[C@H](CO)C(=O)N[C@H](CC(C)C)C(=O)N[C@H](CC(C)C)C(=O)N[C@H](CCCCN)C(=O)N[C@@H](C(=O)N[C@H](CC(C)C)C(=O)N[C@H](CO)C(=O)N[C@H](C)C(=O)N[C@H](C)C(=O)N[C@H](CCCCN)C(=O)N[C@H](CCCCN)C(=O)N[C@H](CCCCN)C(=O)N[C@H](CCCCN)C(=O)N[C@H](CC(C)C)C(=O)N[C@H](C)C(=O)N[C@@H](C(=O)N[C@H](CC(C)C)C(=O)N[C@H](CC(C)C)C(=O)N[C@H](CCCCN)C(=O)N[C@H](C)C(=O)N[C@H](CC(C)C)C(=O)N[C@H](CO)C(=O)N[C@H](CCCCN)C(N)=O)[C@H](C)O)[C@H](C)O [D88(Lys^1-6 Lys-2)] (Ac-[dK][dL][dK][dS][dL][dL][dK][dT][dL][dS][dA][dA][dK][dK][dK][dK][dL][dA][dT][dL][dL][dK][dA][dL][dS][dK]-NH2) | 0.3 (≈ 0.86 µg/mL) | 0.3 (≈ 0.86 µg/mL) | 0.4 (≈ 1.15 µg/mL) | 0.3 (≈ 0.86 µg/mL) | 0.7 (≈ 2.01 µg/mL) | 0.3 (≈ 0.86 µg/mL) | 0.7 (≈ 2.01 µg/mL)
4 | CC(=O)N[C@H](CCCCN)C(=O)N[C@H](CC(C)C)C(=O)N[C@@H](CCN)C(=O)N[C@H](CO)C(=O)N[C@H](CC(C)C)C(=O)N[C@H](CC(C)C)C(=O)N[C@@H](CCN)C(=O)N[C@@H](C(=O)N[C@H](CC(C)C)C(=O)N[C@H](CO)C(=O)N[C@H](C)C(=O)N[C@H](C)C(=O)N[C@H](CCCCN)C(=O)N[C@@H](CCN)C(=O)N[C@@H](CCN)C(=O)N[C@H](CCCCN)C(=O)N[C@H](CC(C)C)C(=O)N[C@H](C)C(=O)N[C@@H](C(=O)N[C@H](CC(C)C)C(=O)N[C@H](CC(C)C)C(=O)N[C@@H](CCN)C(=O)N[C@H](C)C(=O)N[C@H](CC(C)C)C(=O)N[C@H](CO)C(=O)N[C@@H](CCN)C(N)=O)[C@H](C)O)[C@H](C)O [D89(Lys^1-6 Dab-2)] (Ac-[dK][dL][Dab][dS][dL][dL][Dab][dT][dL][dS][dA][dA][dK][Dab][Dab][dK][dL][dA][dT][dL][dL][Dab][dA][dL][dS][Dab]-NH2) | 0.7 (≈ 1.89 µg/mL) | 0.7 (≈ 1.89 µg/mL) | 0.7 (≈ 1.89 µg/mL) | 0.7 (≈ 1.89 µg/mL) | 0.7 (≈ 1.89 µg/mL) | 0.7 (≈ 1.89 µg/mL) | 0.7 (≈ 1.89 µg/mL)
5 | CC(=O)N[C@H](CCCCN)C(=O)N[C@H](CC(C)C)C(=O)N[C@H](CCCCN)C(=O)N[C@H](CO)C(=O)N[C@H](CC(C)C)C(=O)N[C@H](CC(C)C)C(=O)N[C@H](CCCCN)C(=O)N[C@@H](C(=O)N[C@H](CC(C)C)C(=O)N[C@H](CO)C(=O)N[C@H](CCCCN)C(=O)N[C@H](C)C(=O)N[C@H](CCCCN)C(=O)N[C@H](C)C(=O)N[C@H](C)C(=O)N[C@H](CCCCN)C(=O)N[C@H](CC(C)C)C(=O)N[C@H](CCCCN)C(=O)N[C@@H](C(=O)N[C@H](CC(C)C)C(=O)N[C@H](CC(C)C)C(=O)N[C@H](CCCCN)C(=O)N[C@H](C)C(=O)N[C@H](CC(C)C)C(=O)N[C@H](CO)C(=O)N[C@H](CO)C(N)=O)[C@H](C)O)[C@H](C)O [D101(Lys^1Ser^26-5 Lys-1)] (Ac-[dK][dL][dK][dS][dL][dL][dK][dT][dL][dS][dK][dA][dK][dA][dA][dK][dL][dK][dT][dL][dL][dK][dA][dL][dS][dS]-NH2) | 1.5 (≈ 4.24 µg/mL) | 0.7 (≈ 1.98 µg/mL) | 0.7 (≈ 1.98 µg/mL) | 0.7 (≈ 1.98 µg/mL) | 0.7 (≈ 1.98 µg/mL) | 0.7 (≈ 1.98 µg/mL) | 0.7 (≈ 1.98 µg/mL)
6 | CC(=O)N[C@H](CCCCN)C(=O)N[C@H](CC(C)C)C(=O)N[C@@H](CCN)C(=O)N[C@H](CO)C(=O)N[C@H](CC(C)C)C(=O)N[C@H](CC(C)C)C(=O)N[C@@H](CCN)C(=O)N[C@@H](C(=O)N[C@H](CC(C)C)C(=O)N[C@H](CO)C(=O)N[C@H](C)C(=O)N[C@H](C)C(=O)N[C@H](CCCCN)C(=O)N[C@@H](CCN)C(=O)N[C@@H](CCN)C(=O)N[C@H](CCCCN)C(=O)N[C@H](CC(C)C)C(=O)N[C@H](C)C(=O)N[C@@H](C(=O)N[C@H](CC(C)C)C(=O)N[C@H](CC(C)C)C(=O)N[C@@H](CCN)C(=O)N[C@H](C)C(=O)N[C@H](CC(C)C)C(=O)N[C@H](CO)C(=O)N[C@H](CO)C(N)=O)[C@H](C)O)[C@H](C)O [D104(Lys^1Ser^26-5 Dab-2)] (Ac-[dK][dL][Dab][dS][dL][dL][Dab][dT][dL][dS][dA][dA][dK][Dab][Dab][dK][dL][dA][dT][dL][dL][Dab][dA][dL][dS][dS]-NH2) | 1.5 (≈ 4.03 µg/mL) | 0.7 (≈ 1.88 µg/mL) | 0.7 (≈ 1.88 µg/mL) | 0.7 (≈ 1.88 µg/mL) | 0.7 (≈ 1.88 µg/mL) | 0.7 (≈ 1.88 µg/mL) | 0.7 (≈ 1.88 µg/mL)

Source: paper PMC8351594, “Design of Novel Amphipathic α-Helical Antimicrobial Peptides with No Toxicity as Therapeutics against the Antibiotic-Resistant Gram-Negative Bacterial Pathogen, Acinetobacter Baumannii” (Journal of medicinal chemistry and drug design, 2019)
